Assay results published in US20250197864A1, “LNCRNA TRANSCRIPTS IN MELANOMAGENESIS” (The Regents of the University of California, priority 2021, published 2025).

Legend:
D04 xenograft tumors [1] = test: Intratumoral in vivo treatment, D04 xenograft; conditions: D04 tumors in mice; 400 μg twice a week into the tumor mass, no transfection reagent; vs non-targeting control ASO
Procedure: (§1) In 4- to 6-week-old NOD.Cg-Prkdcscid Il2rgtm1Wjl/SzJ mice D04, cells in 150 1 of PBS and 501 of Matrigel were subcutaneously injected on the right posterior dorsal flank of 4- to 6-week-old homozygous nude Foxn1nu/Foxn1nu mice (Stock.no 007850). Mice were obtained from JAX®. Tumor size was measured using a digital caliper and the formula 0.5×(length×(width^2)) was used to calculate tumor volume. Mice were treated twice a week with 400 μg of (SEQ ID NO: 16) or non-targeting control-ASO. No transfection reagent was co-applied. ASO injections were applied into the tumor mass. Mice were weighted twice a week and observed for signs of distress or disorder.

[2] = system: sarcoma cell line SK-LMS-1; test: Cell viability assay (ATP quantitation); format: cell-based; conditions: SK-LMS-1 sarcoma; 50 nM, 120 hrs; Lipofectamine3000 2 ul/ml; vs non-targeting control ASO
Procedure: (§2) EsiRNA, siRNA and ASO GapmeRs were transfected in a final concentration of 50 nM unless mentioned otherwise and the transfection reagent Lipofectamine 3000 (2 ul/ml) was added according to the manufacturer's instructions.
(§3) Dependent on cell doubling time, 0.7-2×10^^3 cells were seeded in 96 well plates. 1 day after seeding cells were incubated in media with oligonucleotide concentration and/or MEKi and transfection reagent. 3 (synergy experiments) or 5 (solely ASO) days after transfection Total luminescence was measured on the SynergyHT plate reader (BioTek) using Gen5 software.
(§4) Cell viability was compared to treatment with non-targeting control ASO-treatment. Lipofectamine3000 concentration was 2 ul/ml.

[3] = system: hepatocellular carcinoma cell line HepG2; test: Cell viability assay (ATP quantitation); format: cell-based; conditions: 50 nM, 120 hrs, Lipofectamine3000 2 ul/ml, vs non-targeting control ASO
Procedure: as §2, §3, §4

[4] = system: WM3629 melanoma cell line; test: Cell viability assay (ATP quantitation); format: cell-based, human; conditions: 50 nM, 5 days (120 hrs), vs non-targeting control
Method in brief: (§5)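 Luminescence readout of cellular ATP, taken 3 days post-transfection for synergy experiments or 5 days for ASO alone. Oligonucleotides (esiRNA, siRNA, ASO GapmeRs) were delivered at 50 nM final unless noted, via Lipofectamine 3000, optionally combined with MEKi.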

[5] = system: Hs852.T primary melanoma cell line; test: Cell viability assay (ATP quantitation); format: cell-based, human; conditions: 50 nM, 5 days (120 hrs), vs non-targeting control
Method in brief: as §5

[6] = system: WM3211 melanoma cell line; test: Cell viability assay (ATP quantitation); format: cell-based, human; conditions: 50 nM, 5 days (120 hrs), vs non-targeting control
Method in brief: as §5

VMM39 melanoma cell line = test: Cell viability assay (ATP quantitation); format: cell-based, human; conditions: 50 nM, 5 days (120 hrs), vs non-targeting control
Method in brief: as §5

[7] = system: AV5 primary melanoma cell line; test: Cell viability assay (ATP quantitation); format: cell-based, human; conditions: 50 nM, 5 days (120 hrs), vs non-targeting control
Method in brief: as §5

MM415 melanoma cell line = test: Cell viability assay (ATP quantitation); format: cell-based, human; conditions: 50 nM, 5 days (120 hrs), vs non-targeting control
Method in brief: as §5

[8] = system: Sk-Mel-2 melanoma cell line; test: Cell viability assay (ATP quantitation); format: cell-based, human; conditions: 50 nM, 5 days (120 hrs), vs non-targeting control
Method in brief: as §5

[9] = system: Sk-Mel-28 melanoma cell line; test: Cell viability assay (ATP quantitation); format: cell-based, human; conditions: 50 nM, 5 days (120 hrs), vs non-targeting control
Method in brief: as §5

D04 melanoma cell line = test: Cell viability assay (ATP quantitation); format: cell-based, human; conditions: 50 nM, 5 days (120 hrs), vs non-targeting control
Method in brief: as §5

[10] = system: WM1366 melanoma cell line; test: Cell viability assay (ATP quantitation); format: cell-based, human; conditions: 50 nM, 5 days (120 hrs), vs non-targeting control
Method in brief: as §5

D04 xenograft tumors [11] = test: Intravenous in vivo treatment, D04 xenograft; conditions: D04 tumors in mice; 700 μg twice a week, intravenous tail vein, no transfection reagent; vs non-targeting control ASO
Procedure: as §1, with “mice, D04” for “mice D04,”, “50 1” for “501”, “right and left” for “right”, “700” for “400”, “intravenously as tail vein injections.” for “into the tumor mass.”

## TGCGCGGCGGAAAGAA (QIAGEN GapmeR, modification pattern not given here) [SEQ ID NO: 16, ASO targeting AC004540.4 (TRASH), intronic region of Isoform 2; used in vivo]
D04 xenograft tumors [1]
  tumor growth: significantly reduced tumor growth
[2]
  cell viability decrease: significant cell viability decrease
[3]
  cell viability decrease: significant cell viability decrease
[4]
  cell viability decrease: significant cell viability decrease
[5]
  cell viability decrease: significant cell viability decrease
[6]
  cell viability decrease: significant cell viability decrease
VMM39 melanoma cell line
  cell viability decrease: significant cell viability decrease
[7]
  cell viability decrease: significant cell viability decrease
MM415 melanoma cell line
  cell viability decrease: significant cell viability decrease
[8]
  cell viability decrease: significant cell viability decrease
[9]
  cell viability decrease: significant cell viability decrease
D04 melanoma cell line
  cell viability decrease: significant cell viability decrease
[10]
  cell viability decrease: significant cell viability decrease
D04 xenograft tumors [11]
  tumor growth: significantly reduced tumor growth
